Results as given in DBAASP.
Converted amounts (≈) assume the structure as drawn. Blank lines part the entries; values can stand above or below the compound they belong to.

Assays:
Assay in all cases: ≥ marks a high value that may be exact or a test limit, other limits are often not marked, values filed in µg/mL are converted to µM
[1] = tested on: Escherichia coli ATCC 25922
[2] = tested on: Escherichia coli CVCC 1515
Escherichia coli K88 = tested on: Escherichia coli K88
Escherichia coli UB1005 = tested on: Escherichia coli UB1005
[3] = tested on: Pseudomonas aeruginosa ATCC 27853
[4] = tested on: Salmonella enterica subsp. enterica serovar Typhimurium ATCC 14028
[5] = tested on: Staphylococcus aureus ATCC 29213
[6] = tested on: Staphylococcus epidermidis ATCC 12228
Escherichia coli BW25113 = tested on: Escherichia coli BW25113
Escherichia coli J2210 = tested on: Escherichia coli J2210
Escherichia coli JJ2489 = tested on: Escherichia coli JJ2489
Escherichia coli JW0013 = tested on: Escherichia coli JW0013
[7] = tested on: Escherichia coli JW0368 ΔsbmA
[8] = tested on: Escherichia coli JW2778 ΔygdD
Escherichia coli MC1041 = tested on: Escherichia coli MC1041
[9] = tested on: Salmonella enterica subsp. enterica serovar Enteritidis MH91989
[10] = tested on: Salmonella typhimurium SL1344
[11] = tested on: Bacillus amyloliquefaciens ATCC 23842
[12] = tested on: Bacillus cereus ATCC 14579
[13] = tested on: Bacillus licheniformis ATCC 14580
[14] = tested on: Bacillus subtilis ATCC 6051
[15] = tested on: Enterococcus faecalis 1F-1
[16] = tested on: Enterococcus faecium 5F-10
[17] = tested on: Proteus mirabilis ATCC 35659
[18] = tested on: Pseudomonas aeruginosa PAO1
[19] = tested on: Salmonella enterica ATCC H9812
[20] = tested on: Candida albicans ATCC 90029
Candida albicans = tested on: Candida albicans
Escherichia coli = tested on: Escherichia coli
Pseudomonas aeruginosa = tested on: Pseudomonas aeruginosa
Staphylococcus aureus = tested on: Staphylococcus aureus
Bacillus subtilis = tested on: Bacillus subtilis
Enterococcus faecalis = tested on: Enterococcus faecalis
Escherichia coli O111:B4 = tested on: Escherichia coli O111:B4
[21] = tested on: Pseudomonas aeruginosa H103
[22] = tested on: Salmonella typhimurium C610
[23] = tested on: Staphylococcus aureus K147
[24] = tested on: Staphylococcus aureus SAP 0017
[25] = tested on: Staphylococcus epidermidis
Bacillus subtilis 168 = tested on: Bacillus subtilis 168
[26] = tested on: Candida albicans ATCC 10231
[27] = tested on: Candida glabrata ATCC 2001
[28] = tested on: Candida tropicalis ATCC 13803
[29] = tested on: Klebsiella pneumoniae ATCC 13883
[30] = tested on: Staphylococcus aureus MU50
[31] = tested on: Staphylococcus aureus Newman
[32] = tested on: Staphylococcus aureus UAMS-1
[33] = tested on: Staphylococcus aureus USA 200
[34] = tested on: Staphylococcus aureus USA 400
[35] = tested on: Staphylococcus epidermidis 1457

SMILES: CC(C)C[C@H](NC(=O)[C@H](CCCN=C(N)N)NC(=O)[C@@H]1CCCN1C(=O)[C@H](CCCN=C(N)N)NC(=O)[C@@H]1CCCN1C(=O)[C@@H]1CCCN1C(=O)[C@H](CCCN=C(N)N)NC(=O)[C@@H]1CCCN1C(=O)[C@H](CCC(N)=O)NC(=O)[C@@H]1CCCN1C(=O)[C@H](CCCN=C(N)N)NC(=O)[C@H](Cc1ccc(O)cc1)NC(=O)[C@@H](NC(=O)[C@@H]1CCCN1C(=O)[C@H](CCCN=C(N)N)NC(=O)[C@H](CC(N)=O)NC(=O)[C@H](CC(N)=O)NC(=O)CN)C(C)C)C(=O)O [GNNRPVYRPQPRPPRPRL]
MIC (Escherichia coli BW25113): 0.062 µM (≈ 0.135 µg/mL)
MIC (Escherichia coli J2210): 0.126 µM (≈ 0.273 µg/mL)
MIC (Escherichia coli JJ2489): 0.126 µM (≈ 0.273 µg/mL)
MIC (Escherichia coli JW0013): 0.048 µM (≈ 0.104 µg/mL)
MIC [7]: 0.096 µM (≈ 0.208 µg/mL)
MIC [8]: 0.126 µM (≈ 0.273 µg/mL)
MIC (Escherichia coli MC1041): 0.096 µM (≈ 0.208 µg/mL)
MIC [9]: 0.067 µM (≈ 0.145 µg/mL)
MIC [10]: 0.126 µM (≈ 0.273 µg/mL)

SMILES: CC(C)C[C@H](NC(=O)[C@@H](N)CC(C)C)C(=O)N[C@@H](CO)C(=O)N[C@@H](CCCN=C(N)N)C(=O)N[C@H](C(=O)N[C@@H](CC(=O)O)C(=O)N[C@@H](CCC(=O)O)C(=O)O)C(C)C [LLSRVDE]
MIC [11]: ≥ 154 µM
MIC [12]: ≥ 154 µM
MIC [13]: ≥ 154 µM
MIC [14]: ≥ 154 µM
MIC [15]: ≥ 154 µM
MIC [16]: ≥ 154 µM
MIC [1]: > 154 µM
MIC [17]: ≥ 154 µM
MIC [18]: > 154 µM
MIC [19]: ≥ 154 µM
MIC [5]: > 154 µM

SMILES: CC(C)C[C@H](NC(=O)[C@H](Cc1cnc[nH]1)NC(=O)[C@H](CO)NC(=O)[C@H](C)NC(=O)[C@H](CC(C)C)NC(=O)[C@@H](NC(=O)[C@@H](NC(=O)[C@H](CC(C)C)NC(=O)[C@H](CC(C)C)NC(=O)[C@H](CO)NC(=O)[C@H](Cc1cnc[nH]1)NC(=O)[C@H](CO)NC(=O)[C@H](CC(C)C)NC(=O)[C@H](CC(C)C)NC(=O)[C@H](CCCCN)NC(=O)[C@H](Cc1ccccc1)NC(=O)[C@H](CCCN=C(N)N)NC(=O)[C@@H](N)CCCN=C(N)N)C(C)C)[C@@H](C)O)C(=O)O [RRFKLLSHSLLVTLASHL]
MIC [20]: 5.98 µM (≈ 12.5 µg/mL)
MIC (Candida albicans): 2.99 µM (≈ 6.25 µg/mL)
MIC [1]: 1.49 µM (≈ 3.12 µg/mL)
MIC (Escherichia coli): 1.49 µM (≈ 3.12 µg/mL)
MIC (Pseudomonas aeruginosa): 2.99 µM (≈ 6.25 µg/mL)
MIC [5]: 2.99 µM (≈ 6.25 µg/mL)
MIC (Staphylococcus aureus): 1.49 µM (≈ 3.12 µg/mL)

SMILES: CC(C)C[C@H](NC(=O)[C@H](CCCCN)NC(=O)[C@H](CCCCN)NC(=O)[C@H](Cc1ccccc1)NC(=O)[C@H](Cc1ccccc1)NC(=O)[C@H](CO)NC(=O)[C@H](CCCCN)NC(=O)[C@@H](N)CCCCN)C(=O)N[C@H](C(=O)N[C@@H](CO)C(=O)N[C@H](C(=O)N[C@@H](C)C(=O)N[C@@H](CO)C(=O)N[C@@H](CO)C(=O)N[C@H](C(=O)N[C@@H](CC(C)C)C(=O)N[C@@H](CO)C(=O)O)C(C)C)C(C)C)[C@@H](C)O [KKSFFKKLTSVASSVLS]
MIC (Bacillus subtilis): ≥ 68.9 µM
MIC (Enterococcus faecalis): ≥ 68.9 µM
MIC (Escherichia coli O111:B4): ≥ 68.9 µM
MIC [21]: ≥ 68.9 µM
MIC [22]: ≥ 68.9 µM
MIC [23]: ≥ 68.9 µM
MIC [24]: ≥ 68.9 µM
MIC [25]: ≥ 68.9 µM

Continued, values first:

MIC [1]: 1 µM (≈ 1.35 µg/mL)
MIC [2]: 8 µM (≈ 10.8 µg/mL)
MIC (Escherichia coli K88): 4 µM (≈ 5.41 µg/mL)
MIC (Escherichia coli UB1005): 8 µM (≈ 10.8 µg/mL)
MIC [3]: 4 µM (≈ 5.41 µg/mL)
MIC [4]: 32 µM (≈ 43.3 µg/mL)
MIC [5]: 4 µM (≈ 5.41 µg/mL)
MIC [6]: 4 µM (≈ 5.41 µg/mL)
SMILES: CC(C)C[C@H](NC(=O)[C@H](CC(C)C)NC(=O)[C@H](CCCCN)NC(=O)[C@H](C)NC(=O)[C@H](C)NC(=O)[C@H](C)NC(=O)[C@H](CCCCN)NC(=O)[C@H](C)NC(=O)[C@H](C)NC(=O)[C@H](C)NC(=O)[C@H](CCCCN)NC(=O)[C@H](Cc1c[nH]c2ccccc12)NC(=O)[C@@H](N)CC(C)C)C(N)=O [LWKAAAKAAAKLL]

MIC (Bacillus subtilis 168): 17.7 µM (≈ 26.3 µg/mL)
MIC [26]: 12.5 µM (≈ 18.6 µg/mL)
MIC [27]: 12.5 µM (≈ 18.6 µg/mL)
MIC [28]: 1.6 µM (≈ 2.38 µg/mL)
MIC [1]: > 50 µM
MIC [29]: ≥ 50 µM
MIC [18]: > 50 µM
MIC [30]: 3.1 µM (≈ 4.61 µg/mL)
MIC [31]: 1.6 µM (≈ 2.38 µg/mL)
MIC [32]: 25 µM (≈ 37.2 µg/mL)
MIC [33]: 3.1 µM (≈ 4.61 µg/mL)
MIC [34]: 1.56 µM (≈ 2.32 µg/mL)
MIC [35]: 1.6 µM (≈ 2.38 µg/mL)
SMILES: CC[C@H](C)[C@H](NC(=O)[C@H](CCCCN)NC(=O)CNC(=O)[C@H](CC(C)C)NC(=O)[C@@H](NC(=O)[C@H](CO)NC(=O)[C@H](CCCCN)NC(=O)[C@H](CC(C)C)NC(=O)[C@H](Cc1ccccc1)NC(=O)[C@@H]1CCCN1C(=O)[C@H](CC(C)C)NC(=O)[C@@H](N)Cc1ccccc1)[C@@H](C)CC)C(=O)N[C@@H](CC(C)C)C(N)=O [FLPFLKSILGKIL]
